The values below come from patent US6218393A, “Anthranilic acid derivatives as multi drug resistance modulators” (priority 1997, dated 2001).

Data set [1] has as its system AR 1.0 cells. As to the kind of experiment: Potentiation of toxicity of various cytotoxic agents, AR 1.0 cell line. It is filed as cell-based, mouse. As to conditions: for Potentiation Index at RMA concentration 10 nM: RMA 10 nM; for Potentiation Index at RMA concentration 30 nM: RMA 30 nM; for Potentiation Index at RMA concentration 50 nM: RMA 50 nM. The protocol: The EMT6 mouse mammary carcinoma cell line and the MDR resistant subline AR 1.0 were cultured in RPMI 1640 medium containing 10% foetal calf serum and 2 mM glutamine at 37° C. in 5% CO2. Cells were passaged between 1 in 200 and 1 in 2000 in the case of the parental cell line and between 1 in 20 and 1 in 200 in the case of the MDR resistant subline, after trypsinisation (0.25% trypsin, 0.2 gl^-1, EDTA).
(§1) (b) Cells were cultured for four days with a titration of doxorubicin (0.263 nM-17.24 μM) in the presence of a fixed concentration of each compound. Proliferation was quantified as described by Skehen et al, loc cit. The IC50 (concentration required to reduce proliferation to 50% of the untreated controls) for doxorubicin alone and with each compound were derived and used to calculate the potentiation index (PI): [formula]
(§2) The potentiation indices of a selection of compounds using a variety of cell lines and a variety of cytotoxics other than doxorubicin were measured following the protocol described above for doxorubicin, and the results are shown in Table D.

The subject of data set [2] is AR 1.0 cells. As to the kind of experiment: Potentiation of doxorubicin toxicity: proliferation assay (sulphorhodamine B). The following applies: Mus musculus, 96 h; compound alone; four day proliferation; read-out: Compound Toxicity (IC50). The data set is classed as cell-based, mouse. The text has this: (a) Selected compounds of formula (I) were examined for their ability to potentiate the toxicity of doxorubicin in AR 1.0 cells.

In data set [3] the test system is AR 1.0 cells. As to the kind of experiment: Drug accumulation assay: daunorubicin accumulation in AR 1.0 cells. The data set is classed as cell-based. The following applies: Mus musculus, 100% = accumulation with verapamil 100 μM, 1 hr, 37° C. An outline of the steps: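 Daunorubicin accumulation was measured in cells plated 48 h beforehand. These were AR 1.0 cells, an MDR-resistant derivative of mouse EMT6 mammary carcinoma, cultured at 37 °C in 5% CO2 in RPMI 1640 plus 10% foetal calf serum and 2 mM glutamine.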

For data set [4], the system named is AR 1.0 cells. As to the kind of experiment: Potentiation index with doxorubicin titration. The data set is classed as cell-based, mouse. An outline of the steps:
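Doxorubicin IC50 in AR 1.0 cells (MDR subline of EMT6 mouse mammary carcinoma) determined by sulphorhodamine B after 4-day culture across 0.263 nM-17.24 μM, with and without a fixed dose of test compound; their ratio gives the PI.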

Another data set relates to mdr la P-gp gene. The following applies: cited from earlier work.
The test system of another data set is MDR cells. The following applies: in vitro and in vivo; cited from earlier work.
Another data set has as its system H69/LX4 cells. As to the kind of experiment: Potentiation of toxicity of various cytotoxic agents, H69/LX4 cell line. The following applies: Vincristine. It is filed as cell-based. The procedure:
as §1, §2

The subject of the next data set is 2780AD cells. The experiment in a line: Potentiation of toxicity of various cytotoxic agents, 2780AD cell line. It is filed as cell-based. The following applies: Taxol. The protocol:
as §1, §2

A word on the IC50: it is the point on the concentration scale where inhibition reaches its midpoint. For the compound `COc1cc2c(cc1OC)CN(CCc1ccc(NC(=O)c3cc(OC)c(OC)cc3NC(=O)c3cnc4ccccc4c3)cc1)CC2` [compound 9576, Quinoline-3-carboxylic acid (2-{4-[2-(6,7-dimethoxy-3,4-dihydro-1H-isoquinolin-2-yl)-ethyl]-phenylcarbamoyl}-4,5-dimethoxy-phenyl)-amide], the “Potentiation Index at RMA concentration 10 nM” value in the data set with AR 1.0 cells [1] (Etoposide) was 26; in the data set with AR 1.0 cells [4] (Table C2, RMA 10 nM) it was 78. The “Potentiation Index at RMA concentration 30 nM” value in the data set on AR 1.0 cells [1] (Etoposide) is 45; in the data set with AR 1.0 cells [4] (Table C2, RMA 30 nM) it was 225. The “Potentiation Index at RMA concentration 50 nM” value in the data set with AR 1.0 cells [1] (Etoposide) worked out at 51. Besides, the results for the 50% inhibitory concentration (IC50) in the data set on AR 1.0 cells [2] and in the data set with AR 1.0 cells [3] were 930 nM and 64 nM, respectively. Moreover, the “Potentiation Index at RMA concentration 100 nM” value in the data set with AR 1.0 cells [4] (Table C2, RMA 100 nM) was found to be 280.

Consider ivermectin, for which, in the data set on mdr la P-gp gene, the “increased sensitivity of mice deficient in mdr la P-gp gene” value was “up to 100 fold”.

Regarding `COc1ccc(CCN(C)CCCC(C#N)(c2ccc(OC)c(OC)c2)C(C)C)cc1OC` (stereo not drawn) [Verapamil], in the data set with MDR cells, the “sensitisation of MDR cells to Vinca alkaloids” value is “shown to sensitise MDR cells to Vinca alkaloids in vitro and in vivo”.

On to `COc1cc2c(cc1OC)CN(CCc1ccc(NC(=O)c3sccc3NC(=O)c3cnc4ccccc4c3)cc1)CC2` [compound 9594, Quinoline-3-carboxylic acid (2-{4-[2-(6,7-dimethoxy-3,4-dihydro-1H-isoquinolin-2-yl)-ethyl]-phenylcarbamoyl}-thiophen-3-yl)-amide], for which the “Potentiation Index at RMA concentration 10 nM” value in the data set on AR 1.0 cells [1] (Taxol) was 50; in the data set on H69/LX4 cells (RMA 10 nM) it was 2; in the data set on AR 1.0 cells [4] (Table C1, RMA 10 nM), 11; in the data set with 2780AD cells (RMA 10 nM) it was 18. Moreover, the “Potentiation Index at RMA concentration 30 nM” value in the data set on AR 1.0 cells [1] (Taxol) is on record as 308; in the data set with H69/LX4 cells (RMA 30 nM), 79; in the data set with AR 1.0 cells [4] (Table C1, RMA 30 nM) it was 159; with 2780AD cells (RMA 30 nM), 425. For the same compound, the “Potentiation Index at RMA concentration 50 nM” value in the data set with AR 1.0 cells [1] (Taxol) was found to be 407; with H69/LX4 cells (RMA 50 nM), 356; in the data set on AR 1.0 cells [4] (Table C1, RMA 50 nM) it was 307; with 2780AD cells (RMA 50 nM), 1126. The IC50 in the data set on AR 1.0 cells [3] was determined as 87 nM. In addition, the “Potentiation Index at RMA concentration 100 nM” value with AR 1.0 cells [4] (Table C1, RMA 100 nM) came to 601.
